Measurements from patent US5185347A, “Piperidine compounds and antiulcer composition containing the same” (Meiji Seika Kaisha Ltd., priority 1990, dated 1993).

How the values were obtained:
[1] = test system: Water Immersion Restraint Stress-Induced Ulcer; assay: Test on Water Immersion Restraint Stress-Induced Ulcer; format: in vivo, Wister male rat; conditions: 30 mg/5 ml/kg-b.w. in 0.5% CMC, 1 hour before stress, water immersion restraint 6 hours, 20 to 22° C., ulcer index = sum of longer diameters (mm); for inhibition in vivo at 30 mg/kg: Rattus norvegicus, read-out: Percent Inhibition on Ulceration
Description: 1) Test on Water Immersion Restraint Stress-Induced Ulcer:
A 11-week-old Wister male rat having been deprived of food for 18 hours was restrained in a cage and immersed chest-deep in water at 20 to 22° C. for 6 hours to impose a stress. The rat taken out of water was sacrificed by cervical dislocation, the stomach removed, 5 ml of a 5% formalin aqueous solution poured into the stomach, and the whole stomach was soaked in the same solution for 30 minutes. The thus fixed sample was opened along the greater curvature. The longer diameter (mm) of ulcers formed was measured with a slide caliper, and the sum was taken as an ulcer index. Each of test compounds shown in Table 1 below was suspended in a 0.5% carboxymethylcellulose (CMC) solution and administered to the rat (test group) at a dose level of 30 mg/5 ml/kg-b.w. 1 hour before imposition of a stress. Only a 0.5% CMC solution (5 ml) was administered to a control group. A percent inhibition of ulceration was obtained from equation: [formula]

Toxicity (oral LD50) = conditions: in vivo, orally administering, species not given
Excerpt: The compounds of the present invention are of low toxicity.

Ethanol-Induced Ulcer = assay: Ethanol-Induced Ulcer; format: in vivo, Donryu male rat; conditions: orally, 30 mg/5 ml/kg-b.w. in 0.5% CMC, one hour before 5 ml/kg-b.w. of 100% ethanol
Description: 2) Ethanol-Induced Ulcer:
A Donryu male rat having been deprived of food for 48 hours and of water for 24 hours orally received 5 ml/kg-b.w. of 100% ethanol. One hour later, the rat was sacrificed in the same manner as described in (1) above, the stomach removed and treated in the same manner as above. The test compound (the compound of Example 2) was suspended in a 0.5% CMC solution and orally administered to the rat at a dose of 30 mg/5 ml/kg-b.w. one hour before administration of ethanol.

For “5(6)-(2-Acetylamino-2-ethoxycarbonyl)ethyl-l-[2-(2,2,6,6-tetramethylpiperidin-1-yl)]ethyl-2-[2-(2,2,6,6-tetramethylpiperidin-1-yl)ethylthio]benzimidazole [Example 12]”, the “Percent Inhibition on Ulceration” value [1] was 87%.
`COc1ccc2nc(SCCN3C(C)(C)CCCC3(C)C)[nH]c2c1` [Example 1, 5-Methoxy-2-[2-(2,2,6,6-tetramethylpiperidin-1-yl)ethylthio]benzimidazole] showed an LD50 (Toxicity (oral LD50)) of over 1000 mg/kg and an inhibition in vivo at 30 mg/kg [1] of 92%.
`CCOC(=O)C(Cc1ccc2[nH]c(SCCN3C(C)(C)CCCC3(C)C)nc2c1)NC(=O)c1ccc(Cl)cc1` (stereo not shown) [Example 2] showed an LD50 (Toxicity (oral LD50)) of over 1000 mg/kg, an inhibition on erosion (Ethanol-Induced Ulcer) of 80% and an inhibition in vivo at 30 mg/kg [1] of 97%.
In the case of `CC1(C)CCCC(C)(C)N1CCSc1nc2cc(CC(NC(=O)c3ccc(Cl)cc3)C(N)=O)ccc2[nH]1` (stereo not shown) [Example 3, 5-[2-Carbamoyl-2-(p-chlorobenzoyl)amino]ethyl-2-[2-(2,2,6,6-tetramethylpiperidin-1-yl)ethylthio]benzimidazole], the inhibition in vivo at 30 mg/kg [1] was 62%.
Work on `CC1(C)CCCC(C)(C)N1CCSc1nc2cc(CC(NC(=O)c3ccc(Cl)cc3)C(=O)O)ccc2[nH]1` (stereo not shown) [Example 4, 5-[2-Carboxy-2-(p-chlorobenzoyl)amino]ethyl-2-[2-(2,2,6,6-tetramethylpiperidin-1-yl)ethylthio]benzimidazole] yielded an inhibition in vivo at 30 mg/kg [1] of 40%.
`CCOC(=O)C(Cc1ccc2[nH]c(SCCN3C(C)(C)CCCC3(C)C)nc2c1)NC(C)=O` (stereo not shown) [Example 5, 5-[2-Acetylamino-2-ethoxycarbonyl)ethyl-2-[2-(2,2,6,6-tetramethylpiperidin-1-yl)ethylthio]benzimidazole] gave an LD50 (Toxicity (oral LD50)) of over 1000 mg/kg and an inhibition in vivo at 30 mg/kg [1] of 97%.
Compound `Cc1ccc2nc(SCCN3C(C)(C)CCCC3(C)C)[nH]c2c1` [Example 6, 5-Methyl-2-[2-(2,2,6,6-tetramethylpiperidin-1-yl)ethylthio]benzimidazole] has an inhibition in vivo at 30 mg/kg [1] of 95%.
Compound `CC1(C)CCCC(C)(C)N1CCSc1nc2cc(CO)ccc2[nH]1` [Example 7] has an inhibition in vivo at 30 mg/kg [1] of 97%.
`COC(=O)c1ccc2[nH]c(SCCN3C(C)(C)CCCC3(C)C)nc2c1` [Example 8] gave an inhibition in vivo at 30 mg/kg [1] of 98%.
For `CC1(C)CCCC(C)(C)N1CCSc1nc2ccccc2[nH]1` [Example 9], the inhibition in vivo at 30 mg/kg [1] was 97%.
In the case of `Cn1c(SCCN2C(C)(C)CCCC2(C)C)nc2ccccc21` [Example 10], the inhibition in vivo at 30 mg/kg [1] was 100%.
Compound `CC1(C)CCCC(C)(C)N1CCSc1nc2ccccc2n1Cc1ccccc1` [Example 11] has an inhibition in vivo at 30 mg/kg [1] of 95%.
